Consider four compounds from patent publication US9365549B2, “Hepatitis C virus inhibitors” (THERAVANCE BIOPHARMA R&D IP, LLC, priority 2012, dated 2016).

In assay [1] the test system is HCV genotype 1a replicon cell line. Put plainly: HCV Genotype 1a Replicon Assay. Type of assay: cell-based. To be noted: Hepatitis C virus, Huh7.5 cell background, NS3-specific protease activity in lysates, 48 or 72 hours, read-out: pEC50 Genotype 1a (converted). As to the method: Assay 2: HCV Genotype 1a Replicon Assay
The HCV genotype 1a replicon cell line was obtained from Apath LLC (APC89; Huh7.5 cell background). This subgenomic replicon contains the N-terminus of the HCV core protein fused to the neomycin-resistance selectable marker. The EMCV IRES lies downstream and drives expression of the non-structural proteins NS3-NS5B. Compound potencies were determined using the NS3-specific protease activity in lysates as a measurement of compound inhibition of replicon levels.
(§1) Cells were grown at 37° C. in a 5% CO2 humidified incubator in DMEM (Invitrogen) with 10% FBS (HyClone), 1×NEAA (Invitrogen), 1× Pen-Strep (Invitrogen), and 850 μg/mL G418 (Invitrogen). On day 1 of the assay, cells were plated at 15,000 cells/well in black 96-well tissue culture plates (Costar) in 200 μL media lacking G418. […] Compounds were initially diluted in DMSO and then diluted another 200× in media to bring the final DMSO concentration down to 0.5%. The cells were incubated with test compounds for 48 or 72 hours. At the end of the incubation period, media and compound were removed from the plates.
To determine the NS3-specific protease activity in lysates, the cells were lysed at room temperature in 50 μL/well of 50 mM Hepes pH 7.5, 150 mM NaCl, 15% Glycerol, 0.15% Triton X-100, 10 mM DTT for 20 minutes with shaking. 50 μL of an NS3/4a protease-specific FRET substrate (Anaspec RET S1 Cat#22991) was then added to the wells at a final concentration of 15 μM. The plates were incubated at 37° C. for 20 minutes, which corresponds to a timepoint at which the protease activity is still in the linear phase. Protease activity was determined by measuring fluorescence (Excitation: 340 nm; Emission: 509 nm).
To analyze the data, the fluorescence was plotted vs. the compound concentration, and EC50 values were determined from a 4-parameter robust fit model using GraphPad Prism software.
(In general: A replicon is a self-replicating genome or part of one, used to study replication in cells.)

The subject of assay [2] is HCV genotype 1b replicon cell line. Put plainly: HCV Genotype 1b Replicon Assay. Type of assay: cell-based. To be noted: Hepatitis C virus, Huh-7, Huh7 cell background, luciferase activity readout, 48 hours.
Text: Assay 1: HCV Genotype 1b Replicon Assay
The HCV genotype 1b replicon cell line was obtained from Apath LLC (Brooklyn, N.Y.) (APC144; Huh7 cell background). This subgenomic replicon contains the N-terminus of the HCV core protein fused to the neomycin-resistance selectable marker. The EMCV IRES lies downstream and drives expression of humanized Renilla luciferase fused to the non-structural proteins NS3-NS5B. This cell line was used to determine compound potency using the luciferase activity readout as a measurement of compound inhibition of replicon levels.
as §1, with “500” for “850”, “10,000” for “15,000”, “white” for “black”, “48” for “48 or 72”, “plates and the luciferase activity was determined using Promega Renilla-Glo reagents.” for “plates.”
To analyze the data, the luciferase activity was plotted vs. the compound concentration, and EC50 values were determined from a 4-parameter robust fit model with the GraphPad Prism software package (GraphPad Software, Inc., San Diego, Calif.). Results are expressed as the negative decadic logarithm of the EC50 value, pEC50.

Molecules are shown by their SMILES. Bounds are passed on as bounds.

On to `COC(=O)N[C@H](C(=O)N1C[Si](C)(C)C[C@H]1c1nc(-c2ccc(-c3cc(Cl)c(NC(=O)c4ccc(N5CCN(C(=O)[C@H]6CC6(C)C)C[C@H]5C)nc4)cc3OC(F)(F)F)cc2)c[nH]1)C(C)C` [Example 5, ((S)-1-{(R)-5-[4-(5′-Chloro-4′-{[6-((R)-4-(S)-2,2-dimethylcyclopropanecarbonyl-2-methyl-piperazin-1-yl)-pyridine-3-carbonyl]-amino}-2′-trifluoromethoxy-biphenyl-4-yl)-1H-imidazol-2-yl]-3,3-dimethyl-[1,3]azasilolidine-1-carbonyl}-2-methyl-propyl)-carbamic acid methyl ester], for which the EC50 in assay [1] and in assay [2] was below 0.1 nM in each case.

On to `COC(=O)N[C@H](C(=O)N1C[C@@H](C)C[C@H]1c1nc2c(ccc3cc(-c4cc(F)c(NC(=O)c5ccc(N6CCN(C(=O)C(C)(C)CO)C[C@H]6C)nc5)cc4OC(F)(F)F)ccc32)[nH]1)C1CCOCC1` [Example 5-3], for which the EC50 in assay [1] and in assay [2] was below 0.1 nM in each case.

In the case of `COC(=O)N[C@H](C(=O)N1C[C@@H](C)C[C@H]1c1nc2c(ccc3cc(-c4cc(Cl)c(C(=O)Nc5ccc(N6CCN(C(=O)C(C)(C)CO)C[C@H]6C)nc5)cc4OC(F)(F)F)ccc32)[nH]1)C1CCOCC1` [Example 5-7], the EC50 in assay [1] and in assay [2] was below 0.1 nM each time.

Take `COC(=O)N[C@H](C(=O)N1C[C@@H](C)C[C@H]1c1nc2c(ccc3cc(-c4cc(Cl)c(C(=O)Nc5ccc(N6CCN(C(=O)C(C)(C)C)C[C@H]6C)nc5)cc4OC(F)(F)F)ccc32)[nH]1)C1CCOCC1` [Example 5-6]: the EC50 in assay [1] and in assay [2] was below 0.1 nM throughout.
